Data: patent US7405041B2, “Methods for regulating transcription by targeting quadruplex DNA” (Arizona Board of Regents on behalf of the University of …, priority 2002, dated 2008)

Key:
[1] = system: c-MYB nucleic acid (heptad:tetrad quadruplex); experiment: DNA polymerase arrest assay, c-MYB nucleic acid; type: biochemical; details: temperature gradient of 37° C. to 57° C., in the presence of potassium
Text: (§1) A polymerase arrest assay is useful for determining whether transcription is modulated by a candidate molecule and/or a nucleic acid binding protein. Such an assay includes a template nucleic acid, which often comprises a quadruplex forming sequence, and a primer nucleic acid which hybridizes to the template nucleic acid […] of the quadruplex-forming sequence. The primer is extended by a polymerase (e.g., Taq polymerase), which advances from the primer along the template nucleic acid. In this assay, a quadruplex structure can block or arrest the advance of the enzyme, leading to shorter transcription fragments. Also, the arrest assay may be conducted at a variety of temperatures, including 45° C. and 60° C., and at a variety of ion concentrations. An example of the Taq polymerase stop assay is described in Han, et al., Nucl. Acids Res. 27:537-542 (1999), which is a modification of that used by Weitzmann, et al., J. Biol. Chem. 271, 20958-20964 (1996). Briefly, a reaction mixture of template DNA (50 nM), Tris∘HCl (50 mM), MgCl2 (10 mM), DTT (0.5 mM), EDTA (0.1 mM), BSA (60 ng), and 5′-end-labeled quadruplex nucleic acid (˜18 nM) is heated to 90° C. for 5 minutes and allowed to cool to ambient temperature over 30 minutes. Taq Polymerase (1 μl) is added to the reaction mixture, and the reaction is maintained at a constant temperature for 30 minutes. […]

[2] = system: c-MYC RNA; experiment: Real-time reverse-transcription PCR gene expression in Colo-205 cells, c-MYC; type: cell-based; details: minimally cytotoxic doses
Method: (§2) Cells were treated with telomestatin (interacts with the putative tetrad:heptad in HER-2/neu) and TmPyP4 (negative control) at various concentrations and times. Cytotoxicity studies using MTS were performed to determine a non-toxic or minimally toxic dose and duration of treatment. Cells were harvested after treatment for RNA extraction, and “target” versus “non-target” gene expression is measured by real-time reverse-transcription PCR according to established methods.
(§3) Target genes included two known tetrad/heptad (T:H) forming genes, HER-2/neu and c-MYB. c-MYC was analyzed as a positive control, having a known chair quadruplex forming regulatory unit in the nuclease hypersensitive element of the P1 promoter. […]
(§4) A panel of cell lines including SK-BR-3 breast cancer, BT-474 breast cancer, MCF-7 breast cancer, Colo-205 colon cancer, and HeLa cervical cancer were treated with the quadruplex interactive compound TmPyP4 to assess for the cytotoxicity of this agent against a panel of cell lines with various levels of expression of HER-2/neu, c-MYB, and c-MYC. At minimally cytotoxic doses, Colo-205 cells were analyzed for gene expression after treatment with TmPyP4 and using real-time reverse-transcription PCR.

[3] = system: HER-2/neu quadruplex; experiment: DNA polymerase arrest assay, HER-2/neu promoter template; type: biochemical; details: temperature gradient of 37° C. to 57° C., in the presence of potassium
Text: as §1

[4] = system: B-actin RNA; experiment: Real-time reverse-transcription PCR gene expression in Colo-205 cells, B-actin; type: cell-based; details: minimally cytotoxic doses
Method: as §2, §3, §4

[5] = system: HER-2/neu RNA; experiment: Real-time reverse-transcription PCR gene expression in Colo-205 cells, HER-2/neu; type: cell-based; details: minimally cytotoxic doses
Method: as §2, §3, §4

[6] = system: c-MYB RNA; experiment: Real-time reverse-transcription PCR gene expression in Colo-205 cells, c-MYB; type: cell-based; details: minimally cytotoxic doses
Method: as §2, §3, §4

[7] = system: GAPDH RNA; experiment: Real-time reverse-transcription PCR gene expression in Colo-205 cells, GAPDH; type: cell-based; details: minimally cytotoxic doses
Method: as §2, §3, §4

[8] = system: quadruplex DNA; details: stated as reason for use as negative control; cited from earlier work

SMILES: C[n+]1ccc(-c2c3nc(c(-c4cc[n+](C)cc4)c4ccc([nH]4)c(-c4cc[n+](C)cc4)c4ccc([nH]4)c(-c4cc[n+](C)cc4)c4nc2C=C4)C=C3)cc1 [TMPyP4]
- interaction with and stabilization of the c-MYB nucleic acid [1]: interacted with and stabilized the c-MYB nucleic acid
- c-MYC RNA level [2]: reduction
- interaction with and stabilization of the HER-2/neu quadruplex [3]: no apparent change in the stability of the HER-2/neu quadruplex
- B-actin RNA level [4]: not a reduction
- HER-2/neu RNA level [5]: not a reduction
- c-MYB RNA level [6]: reduction
- GAPDH RNA level [7]: not a reduction

SMILES: C[n+]1ccccc1-c1c2nc(c(-c3cccc[n+]3C)c3ccc([nH]3)c(-c3cccc[n+]3C)c3ccc([nH]3)c(-c3cccc[n+]3C)c3nc1C=C3)C=C2 [TmPyP2]
- interaction with quadruplex DNA [8]: interacts only weakly with quadruplex DNA
